Assay results: patent publication US9724408B2, “Compositions and methods for activating stimulator of interferon gene-dependent signalling” (ADURO BIOTECH, INC., priority 2013, dated 2017)

Key:
THP1-Blue™ ISG cells = assay: Type I interferon induction in THP1-Blue ISG reporter cells (QUANTI-Blue, A655); type: cell-based, human; settings: for IFN-β levels: 50 μM for 30 minutes, supernatants after overnight incubation, FIG. 10
Method: To determine the relative level of type I interferon induced in human cells by each of the native and derivative molecules as a signature of adjuvant potency, 4×10^5 THP1-Blue™ ISG cells (a human monocyte cell line transfected with an IRF-inducible secreted embryonic alkaline phosphatase reporter gene (Invivogen) which express alkaline phosphatase under the control of a promoter comprised of five IFN-stimulated response elements) were incubated with 100 μM of cyclic [G(3′,5′)pG(3′,5′)p] (CDG), cyclic [G(2′,5′)pG(3′,5′)p] (mixed linkage, or ML-CDG), or HBSS for 30 minutes at 37° C. with 5% CO2. After 30 minutes, cells were washed and plated in 96-well dish in RPMI media containing 10% FBS, and incubated at 37° C. with 5% CO2. Cell culture supernatants from each sample were collected after overnight incubation, and 20 μL of the cell culture supernatants was added to 180 μL QUANTI-Blue reagent (Invivogen) and incubated for 45 minutes to evaluate type I interferon protein levels. Readings at Absorbance 655 nm were taken every 3 minutes using a Versa Max kinetic spectrophotometer (Molecular Diagnostics).
[…]. After 30 minutes, cells were washed and plated in 96-well dish in RPMI media containing 10% FBS, and incubated at 37° C. with 5% CO2. Cell culture supernatants from each sample were collected after overnight incubation, and 20 μL of the cell culture supernatants was added to 180 μL QUANTI-Blue reagent (Invivogen) and incubated for 45 minutes. Readings at Absorbance 655 nm were taken at 15 minutes using a SpectraMax spectrophotometer (Molecular Diagnostics).
The induction of type I interferon in human cells was measured to evaluate the potency of untreated and phosphodiesterase-treated oxo, Rp monothio and Rp, Rp dithio derivatives. […]. After 30 minutes, cells were washed and plated in a 96-well dish in RPMI media containing 10% FBS, and incubated at 37° C. with 5% CO2. Cell culture supernatants from each sample were collected after 16 hr incubation, and 20 μL of the cell culture supernatants was added to 180 μL QUANTI-Blue reagent (Invivogen) and incubated for 25 minutes to evaluate type I interferon protein levels. Readings at Absorbance 655 nm were measured with a Versa Max spectrophotometer (Molecular Diagnostics).

[1] = system: CT26 colon carcinoma cells; assay: Abscopal model, CT26 tumors on contralateral flanks, primary tumor injected; type: in vivo, BALB/c mice; settings: 50 μg into the primary tumor only, three injections
Excerpt: The STING-dependent induction of tumor-specific T cell immunity protects animals against subsequent challenge with the autologous tumor. It will be apparent to those skilled in the art that advanced cancer is metastatic, and that to be effective, therapies must inhibit outgrowth of distal masses. Treatment of one or selected lesions that inhibits tumor outgrowth of distal untreated tumor masses is known as an abscopal effect. To test whether IT injection of a selected tumor with synthetic CDN derivative molecules inhibited the tumor outgrowth of a distal untreated tumor, (A) CT26 colon carcinoma cells (1×10^5 cells in 100 μL PBS) and (B) 4T1 mammary carcinoma cells (1×10^5 cells in 100 μL PBS) were implanted subcutaneously on the contralateral flanks of 6-8 week old female BALB/c mice (8 mice per group). Treatments began when tumors reached a volume of approximately 75 mm^3, on day 13 post tumor implantation. The Rp, Rp dithio cyclic [A(2′,5′)pA(3′,5′)p] (ML RR-CDA) compound (50 μg in a total volume of 40 μL HBSS), or HBSS vehicle control, was administered by subcutaneous injection into the center of the primary (right side) tumor only using a 27 gauge needle. Injections were repeated every three days, for a total of three intratumoral injections.

hSTING (REF) = biological target: T1, hSTING (REF) (Homo sapiens, UniProt Q86WV6); assay: IFNβ-LUC reporter in HEK293T cells expressing hSTING (REF); type: cell-based; settings: 10 μM, digitonin permeabilization, 6 hrs, FIG. 14
T1 construct: GFP; expressed in transfected cells; plasmid from the Vance Laboratory, UC Berkeley
T1 sequence (Q86WV6 whole entry): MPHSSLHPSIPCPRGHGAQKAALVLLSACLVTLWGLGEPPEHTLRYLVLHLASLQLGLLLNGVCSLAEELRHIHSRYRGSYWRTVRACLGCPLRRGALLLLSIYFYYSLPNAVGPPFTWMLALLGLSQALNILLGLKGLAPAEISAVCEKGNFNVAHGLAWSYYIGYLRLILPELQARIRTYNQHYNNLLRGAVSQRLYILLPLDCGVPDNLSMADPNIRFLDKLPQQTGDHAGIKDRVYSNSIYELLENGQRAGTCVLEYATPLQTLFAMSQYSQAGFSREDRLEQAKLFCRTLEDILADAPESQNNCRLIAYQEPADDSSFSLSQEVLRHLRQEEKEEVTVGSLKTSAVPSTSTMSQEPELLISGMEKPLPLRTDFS
Method: MSCV2.2 plasmids encoding hSTING(REF)-GFP, hSTING(WT)-GFP, hSTING(HAQ)-GFP, hSTING(Q)-GFP and mSTING(WT)-GFP were obtained from the Vance Laboratory at UC Berkeley. hSTING(AQ)-GFP was derived from hSTING(Q)-GFP using a QuickChange Site-Directed Mutagenesis kit (Stratagene). […] 1×10^4 HEK293T STING cells were seeded in 96-well plates and transiently transfected (using Lipofectamine 2000) with 50 ng of a human IFN-β reporter plasmid (pLuc-IFN-β) expressing the human IFN-β promoter upstream of a luciferase reporter and 10 ng of TK-renilla for normalization. 24 hours later, cells were stimulated with native and synthetic CDN derivative molecules using digitonin permeabalization to ensure uniform uptake. Each STING cell line was stimulated with 10 μM of cyclic [G(3′,5′)pA(3′,5′)p] (cGAMP), cyclic [G(2′,5′)pA(3′,5′)p] […] (RR-CDA), cyclic [A(2′,5′)pA(3′,5′)p] […] (RR-CDG), cyclic [G(2′,5′)pG(3′,5′)p] […] (ML RR-CDG) in 25 ul digitonin buffer (50 mM HEPES, 100 mM KCL, 3 mM MgCl2, 0.1 mM DTT, 85 mM Sucrose, 0.2% BSA, 1 mM ATP, 0.1 mM GTP, 10 ug/ml digitonin). After 20 min, the stimulation mixtures were removed and 200 ul of standard RPMI media was added. After stimulation for 6 hrs, cell lysates were prepared and reporter gene activity measured using the Dual Luciferase Assay System (Promega) on a Spectramax M3 luminometer.

Structure (SMILES) | IFN-β levels (THP1-Blue™ ISG cells) | induction of type I interferon, untreated compounds (THP1-Blue™ ISG cells; 50 μM, mock treated, 16 hr incubation, FIG. 12) | inhibition of the treated primary tumor, CT26 ([1]; FIG. 23A) | outgrowth of the contralateral (untreated) tumor, CT26 ([1]; P=0.0011, FIG. 23A) | IFNβ reporter response of hSTING (REF) (hSTING (REF))
Nc1ncnc2c1ncn2[C@@H]1O[C@@H]2COP(O)(=S)O[C@@H]3C(O)[C@@H](COP(O)(=S)O[C@H]2[C@H]1O)O[C@H]3n1cnc2c(N)ncnc21 (stereo partly drawn) [ML RR-CDA, dithio-[RP, RP]-cyclic-[A(2′,5′)pA(3′,5′)p]] | significantly higher IFN-β levels that either the unmodified CDA or ML CDA molecules | more potent inducers of type I interferon than the oxo | complete inhibition of the treated primary tumor | significantly inhibited | 
Nc1nc2c(ncn2[C@@H]2O[C@@H]3CO[P@@](O)(=S)O[C@@H]4[C@H](O)[C@@H](CO[P@@](O)(=S)O[C@H]3[C@H]2O)O[C@H]4n2cnc3c(=O)[nH]c(N)nc32)c(=O)[nH]1 [ML RR-CDG, dithio-[RP,RP]-cyclic-[G(2′,5′)pG(3′,5′)p]] | significantly higher levels of IFN-β than the unmodified cyclic c-di-GMP (CDG) or modified CDG molecules |  |  |  | responsive to stimulation
